The record followed here is ChEMBL document CHEMBL1201862, “PubChem BioAssay data set” (2004).

Each structure is given as a SMILES string.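 Five concentrations, 48 hours, 96-well plates. Abbreviation: GI50, concentration required for 50% inhibition of growth.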 The source made the active and inactive calls. Rule as the data show it: active = GI50 up to about 1.1 µM and inactive = higher.

Experiment in all cases: growth of human tumour cells (NCI), 48 h
Assay [1] relates to ACHN.
Assay [2] relates to CCRF-CEM.
Assay [3] deals with EKVX.
For assay [4], the system named is HCC 2998.
Assay [5] concerns HCT-116.
For assay [6], the system named is IGROV-1.
In assay [7] the test system is LOX IMVI.
In assay [8] the test system is M14.
In assay [9] the test system is MDA-MB-231.
Assay [10] has as its system MDA-MB-435.
Assay [11] has as its system MOLT-4.
For assay [12], the system named is NCI-H23.
The test system of assay [13] is NCI/ADR-RES.
Assay [14] concerns OVCAR-5.
In assay [15] the test system is PC-3.
Assay [16] concerns SF-295.
In assay [17] the test system is SK-MEL-28.
Assay [18] has as its system SK-MEL-5.
The subject of assay [19] is TK-10.
Assay [20] relates to U-251.

Take `NP1(Oc2ccc(F)cc2)=NP(N)(Oc2ccc(F)cc2)=NP(Oc2ccc(F)cc2)(Oc2ccc(F)cc2)=N1` (configuration not stated): the GI50 is 3.32 µM (inactive) in assay [1]; 6.21 µM (inactive) in assay [2]; 6.82 µM (inactive) in assay [3]; 3.19 µM (inactive) in [4]; 4.58 µM (inactive) in assay [5]; 2.54 µM (inactive) in [6]. For the same compound, the GI50 in assay [7] is 6.84 µM (inactive); in assay [8], 6.9 µM (inactive); in assay [9], 11.4 µM (inactive); in assay [10], 7.01 µM (inactive); in [11] it was 3.37 µM (inactive); in [12], 11.2 µM (inactive). Also, the GI50 is 6.17 µM (inactive) in assay [13]; 11.5 µM (inactive) in assay [14]; 4.85 µM (inactive) in [15]; 4.4 µM (inactive) in [16]; 12.4 µM (inactive) in [17]; 4.91 µM (inactive) in assay [18]. Besides, the GI50 in assay [19] was 2.77 µM (inactive); in [20], 4.78 µM (inactive).
`CCC1(O)CC2CC(=O)OC2C1O` (configuration not stated): the GI50 in assay [1] is > 100 µM (inactive); in assay [2] it was 0.423 µM (active); in assay [3] it was > 100 µM (inactive); in assay [4], > 100 µM (inactive); in assay [6] it was > 100 µM (inactive); in assay [7], > 100 µM (inactive). For the same compound, the GI50 in [8], in assay [9], in assay [10], in assay [11], in assay [12] and in assay [13] was > 100 µM (inactive) throughout. Also, the GI50 in assay [14], in [15], in [16], in assay [17], in assay [18] and in [19] was > 100 µM (inactive) in each case. Moreover, the GI50 in assay [20] was > 100 µM (inactive).
As for `C[Si](C)(C)CCOCN(C(=O)C1=CCC2(CC1)OCCO2)c1ccccc1I`, the GI50 in assay [1] is 22.6 µM (inactive); in assay [2], 25.4 µM (inactive); in [3] it was 14.8 µM (inactive); in assay [4] it was 21.1 µM (inactive); in assay [5] it was 14.1 µM (inactive); in assay [6] it was 24.6 µM (inactive). The GI50 is 29 µM (inactive) in assay [7]; 18.2 µM (inactive) in assay [8]; 22.8 µM (inactive) in [9]; 13.9 µM (inactive) in [10]; 10.8 µM (inactive) in [11]; 18.6 µM (inactive) in [12]. Moreover, the GI50 in assay [13] is 26.7 µM (inactive); in [14] it was 20 µM (inactive); in assay [15], 12.6 µM (inactive); in [16], 15.5 µM (inactive); in [17], 19.4 µM (inactive); in assay [18], 11.3 µM (inactive). Also, the GI50 in assay [19] is 27.6 µM (inactive); in assay [20] it was 24.9 µM (inactive).
`O=c1[nH]c2nc3ccccc3c(=O)n2/c1=C/c1ccc(O)cc1`: the GI50 in [1] was 56.1 µM (inactive); in assay [2], 20.8 µM (inactive); in assay [3], 54.3 µM (inactive); in assay [4] it was 22.2 µM (inactive); in assay [5], 36.8 µM (inactive); in [6], 39.2 µM (inactive). The GI50 in assay [7] was 35.6 µM (inactive); in assay [8], 36.8 µM (inactive); in assay [9] it was 60.3 µM (inactive); in [10], 25.5 µM (inactive); in assay [11], 31.7 µM (inactive); in assay [12] it was 49 µM (inactive). Also, the GI50 in assay [13] is 41.7 µM (inactive); in [14], > 100 µM (inactive); in [15] it was 45.3 µM (inactive); in [16], 46.9 µM (inactive); in [17] it was 28.3 µM (inactive); in assay [18] it was 52.7 µM (inactive). The GI50 is 53 µM (inactive) in assay [19] and 26.2 µM (inactive) in [20].
Take `COc1ccc2nc3cc(Cl)ccc3c(NCCCN(CCCl)CCCl)c2c1`: the GI50 in assay [1] was < 0.01 µM (active); in [2], < 0.01 µM (active); in assay [3], 0.11 µM (active); in [4], 0.0596 µM (active); in [5], 0.012 µM (active); in assay [6] it was 0.0324 µM (active). In addition, the GI50 is 0.0126 µM (active) in assay [7]; 0.0408 µM (active) in assay [8]; 0.0316 µM (active) in assay [9]; 0.0323 µM (active) in assay [10]; < 0.01 µM (active) in assay [11]; 0.0116 µM (active) in assay [12]. Besides, the GI50 was < 0.01 µM (active) in assay [13]; 0.034 µM (active) in [14]; < 0.01 µM (active) in assay [15]; 0.0142 µM (active) in assay [16]; 0.197 µM (active) in assay [17]; 0.034 µM (active) in assay [18]. The GI50 is 0.452 µM (active) in [19] and 0.0185 µM (active) in [20].
For the compound `COC(=O)c1sc2c(c1C(=O)OC)/C(=N/c1ccc(OC)cc1)S/C2=N\c1ccc(OC)cc1`, the GI50 in [1] is 1.24 µM (inactive); in assay [2], 0.104 µM (active); in assay [3] it was 1.55 µM (inactive); in [4], 1.69 µM (inactive); in assay [5] it was 0.451 µM (active); in [6] it was 1.2 µM (inactive). Moreover, the GI50 in assay [7] is 0.258 µM (active); in assay [8], 1.45 µM (inactive); in assay [9], 0.853 µM (active); in assay [10], 0.785 µM (active); in [11] it was 0.248 µM (active); in [12], 1.57 µM (inactive). The GI50 in assay [13] is 1.71 µM (inactive); in [14] it was 1.73 µM (inactive); in assay [15], 0.462 µM (active); in assay [16] it was 1.68 µM (inactive); in assay [17], 1.37 µM (inactive); in assay [18] it was 1.21 µM (inactive). Besides, the GI50 was 1.62 µM (inactive) in [19] and 0.348 µM (active) in assay [20].
Turning to `CC1(C)C=C(/C=N/Nc2ccc(Br)cc2)C(C#N)=C(O)C1(C#N)C#N`, the GI50 in [1] is 33.3 µM (inactive); in assay [2] it was 35.8 µM (inactive); in [3], 54.3 µM (inactive); in assay [4], 24.5 µM (inactive); in assay [5], 32.2 µM (inactive); in assay [6], 81.8 µM (inactive). Also, the GI50 in assay [7] was 64.6 µM (inactive); in assay [8] it was 26.6 µM (inactive); in [9], 39.5 µM (inactive); in assay [10] it was 39.7 µM (inactive); in assay [11] it was 29.2 µM (inactive); in [12], 46 µM (inactive). In addition, the GI50 in assay [13] is 45.2 µM (inactive); in assay [14], > 100 µM (inactive); in assay [15] it was 21.2 µM (inactive); in assay [16] it was > 100 µM (inactive); in assay [17] it was 81.8 µM (inactive); in assay [18], > 100 µM (inactive). For the same compound, the GI50 in [19] was 83.6 µM (inactive).
Regarding `O=C(COc1ccccc1)N(C(=O)N1CCN(c2ccccc2)CC1)S(=O)(=O)c1ccccc1`, the GI50 was > 100 µM (inactive) in assay [1]; 22.1 µM (inactive) in [2]; > 100 µM (inactive) in assay [3]; > 100 µM (inactive) in assay [4]; 44 µM (inactive) in assay [5]; 77.4 µM (inactive) in assay [7]. Further, the GI50 was > 100 µM (inactive) in [8]; 52 µM (inactive) in assay [9]; > 100 µM (inactive) in assay [10]; 25.4 µM (inactive) in [11]; > 100 µM (inactive) in assay [12]; 56.8 µM (inactive) in assay [13]. The GI50 in assay [14] is > 100 µM (inactive); in assay [15], 50.5 µM (inactive); in [16], > 100 µM (inactive); in assay [17], > 100 µM (inactive); in [18], > 100 µM (inactive); in [19], > 100 µM (inactive). In addition, the GI50 in assay [20] is 30.8 µM (inactive).
Turning to `Cc1ccc2c(n1)C(=O)c1ccccc1C2=O`, the GI50 in [1] is 31.8 µM (inactive); in assay [2] it was 37.7 µM (inactive); in assay [3], 27.5 µM (inactive); in assay [4] it was 28.8 µM (inactive); in [5], 22.9 µM (inactive); in assay [6], 24.3 µM (inactive). Moreover, the GI50 in assay [7] is 17.6 µM (inactive); in [8] it was > 44.5 µM (inactive); in [9] it was 23.3 µM (inactive); in [10] it was 18.2 µM (inactive); in [11] it was 33 µM (inactive); in [12], 14.7 µM (inactive). Also, the GI50 in [13] is 24.4 µM (inactive); in [14] it was 21.9 µM (inactive); in assay [15], 23.9 µM (inactive); in [16], 25.8 µM (inactive); in assay [17] it was 51.5 µM (inactive); in [18], 6.84 µM (inactive). Moreover, the GI50 in [19] is 71.3 µM (inactive); in [20], 27.8 µM (inactive).
As to `CCOP(=O)(OCC)C(C)(CC)NC1=NC(C(F)(F)F)(C(F)(F)F)NC(=O)N1` (configuration not stated), the GI50 in assay [1] is > 100 µM (inactive); in [2] it was > 100 µM (inactive); in assay [3], > 100 µM (inactive); in assay [4], > 100 µM (inactive); in [5], > 100 µM (inactive); in assay [6], 70.1 µM (inactive). For the same compound, the GI50 in assay [7], in assay [8], in assay [9], in assay [10], in assay [11] and in assay [12] was > 100 µM (inactive) each time. Further, the GI50 in assay [13], in assay [14], in assay [15], in [16], in [17] and in assay [18] was > 100 µM (inactive) throughout. In addition, the GI50 in assay [19] and in assay [20] was > 100 µM (inactive) in each case.
